Experimental data as given in the supplement of paper PMC6045584.
± gives the standard deviation of the averaged measurements.

How the values were obtained:
[1] = compound: C[C@H](CN(C)C)Oc1nc(Nc2cc3cccc(Cl)c3cn2)cnc1C#N; assay: area under dose-response curve of surviving fraction (unscaled, Aref=0) (surviving fraction x log10(nM)); higher = more resistant; conditions: exposure time: 5 days; dose range 0.5-1000 nM
How it was run: (§1)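 Surviving fractions were fitted by 3-parameter logistic regression in the drc R package to give dose-response survival curves. They came from tumour cell lines treated for five days with eight inhibitor concentrations from 0.5 to 1000 nM and read by CellTiter-Glo luminescence against DMSO-only wells. The area under the curve is the unscaled activity area. It was calculated over log10 dose with Aref = 0.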

IMATINIB [2] = compound: T1, Cc1ccc(NC(=O)c2ccc(CN3CCN(C)CC3)cc2)cc1Nc1nccc(-c2cccnc2)n1 [IMATINIB]; assay: as above; conditions: exposure time: 5 days; dose range 0.5-1000 nM
How it was run: as §1

AFIMOXIFENE = compound: CC/C(=C(\c1ccc(O)cc1)c1ccc(OCCN(C)C)cc1)c1ccccc1 [AFIMOXIFENE]; assay: as above; conditions: exposure time: 5 days; dose range 0.5-1000 nM
How it was run: as §1

CABOZANTINIB = compound: COc1cc2nccc(Oc3ccc(NC(=O)C4(C(=O)Nc5ccc(F)cc5)CC4)cc3)c2cc1OC [CABOZANTINIB]; assay: as above; conditions: exposure time: 5 days; dose range 0.5-1000 nM
How it was run: as §1

NILOTINIB = compound: Cc1cn(-c2cc(NC(=O)c3ccc(C)c(Nc4nccc(-c5cccnc5)n4)c3)cc(C(F)(F)F)c2)cn1 [NILOTINIB]; assay: as above; conditions: exposure time: 5 days; dose range 0.5-1000 nM
How it was run: as §1

BMN-673 = compound: Cn1ncnc1[C@H]1c2n[nH]c(=O)c3cc(F)cc(c23)N[C@@H]1c1ccc(F)cc1 [BMN-673]; assay: as above; conditions: exposure time: 5 days; dose range 0.5-1000 nM
How it was run: as §1

IMATINIB [3] = compound: T1, IMATINIB; assay: surviving fraction relative to DMSO-only wells; higher = less growth inhibition; conditions: exposure time: 5 days
How it was run: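 A line counted only if its three screens reached replicate Pearson r >0.7 and median Z' >0.3. Tumour cells in log phase were seeded at 250–500 per well in 384-well plates and, after 24 hours, kept in continuous contact with inhibitors at 0.5, 1, 5, 10, 50, 100, 500 and 1000 nM for five days. Surviving fraction was taken from CellTiter-Glo luminescence relative to the median of DMSO-only wells.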

Which “area under dose-response curve” value [1] does the source give for CCK81 LARGE INTESTINE here?
Its value is 2.09.

What about the “area under dose-response curve” value (IMATINIB [2]) of the same test system?
Its value is 2.6.

And the “area under dose-response curve” value (AFIMOXIFENE)?
Its value is 2.84.

What about the “area under dose-response curve” value (CABOZANTINIB) of the same test system?
Its value is 2.42.

And the “area under dose-response curve” value (NILOTINIB)?
Its value is 2.58.

What about the “area under dose-response curve” value (BMN-673) of the same test system?
Its value is 2.04.

What about the surviving fraction (IMATINIB [3]; 0.5 nM) of the same test system?
The surviving fraction was 0.813 ± 0.083.

What about the surviving fraction (IMATINIB [3]; 1 nM) of the same test system?
Its surviving fraction is 0.815 ± 0.09.

And the surviving fraction (IMATINIB [3]; 5 nM)?
The surviving fraction was 0.81 ± 0.038.

What about the surviving fraction (IMATINIB [3]; 10 nM) of the same test system?
Its surviving fraction is 0.795 ± 0.048.

What about the surviving fraction (IMATINIB [3]; 50 nM) of the same test system?
Its surviving fraction is 0.706 ± 0.049.

And the surviving fraction (IMATINIB [3]; 100 nM)?
The surviving fraction was 0.843 ± 0.11.

And the surviving fraction (IMATINIB [3]; 500 nM)?
The surviving fraction was 0.741 ± 0.078.

What about the surviving fraction (IMATINIB [3]; 1000 nM) of the same test system?
Its surviving fraction is 0.778 ± 0.047.

Which “area under dose-response curve” value [1] does the source give for G292 BONE here?
Its value is 3.2.

And the “area under dose-response curve” value (IMATINIB [2])?
Its value is 3.31.

What about the “area under dose-response curve” value (AFIMOXIFENE) of the same test system?
The value was 3.18.

And the “area under dose-response curve” value (CABOZANTINIB)?
Its value is 3.03.

And the “area under dose-response curve” value (NILOTINIB)?
The value was 3.44.

And the “area under dose-response curve” value (BMN-673)?
Its value is 2.57.

What about the surviving fraction (IMATINIB [3]; 0.5 nM) of the same test system?
Its surviving fraction is 1.01 ± 0.037.

And the surviving fraction (IMATINIB [3]; 1 nM)?
The surviving fraction was 1.038 ± 0.0097.

And the surviving fraction (IMATINIB [3]; 5 nM)?
Its surviving fraction is 1.09 ± 0.024.

What about the surviving fraction (IMATINIB [3]; 10 nM) of the same test system?
The surviving fraction was 1.05 ± 0.024.

What about the surviving fraction (IMATINIB [3]; 100 nM) of the same test system?
Its surviving fraction is 1.04 ± 0.028.

And the surviving fraction (IMATINIB [3]; 500 nM)?
The surviving fraction was 0.862 ± 0.029.

What about the surviving fraction (IMATINIB [3]; 1000 nM) of the same test system?
Its surviving fraction is 0.923 ± 0.065.

How did the “area under dose-response curve” value [1] turn out when HCC38 BREAST was run?
Its value is 2.59.

And the “area under dose-response curve” value (AFIMOXIFENE)?
The value was 3.66.

And the “area under dose-response curve” value (CABOZANTINIB)?
The value was 4.07.

What about the “area under dose-response curve” value (NILOTINIB) of the same test system?
The value was 2.77.

And the “area under dose-response curve” value (BMN-673)?
Its value is 2.

And the surviving fraction (IMATINIB [3]; 0.5 nM)?
Its surviving fraction is 1.32 ± 0.15.

And the surviving fraction (IMATINIB [3]; 1 nM)?
The surviving fraction was 1.13 ± 0.13.

And the surviving fraction (IMATINIB [3]; 5 nM)?
Its surviving fraction is 1.39 ± 0.13.

And the surviving fraction (IMATINIB [3]; 10 nM)?
Its surviving fraction is 1.3 ± 0.27.

What about the surviving fraction (IMATINIB [3]; 50 nM) of the same test system?
The surviving fraction was 1.31 ± 0.15.

And the surviving fraction (IMATINIB [3]; 100 nM)?
The surviving fraction was 1.46 ± 0.21.

What about the surviving fraction (IMATINIB [3]; 500 nM) of the same test system?
The surviving fraction was 1.08 ± 0.12.

And the surviving fraction (IMATINIB [3]; 1000 nM)?
The surviving fraction was 1.1 ± 0.029.

Which “area under dose-response curve” value [1] does the source give for HCC70 BREAST here?
The value was 3.06.

What about the “area under dose-response curve” value (IMATINIB [2]) of the same test system?
The value was 3.79.

What about the “area under dose-response curve” value (AFIMOXIFENE) of the same test system?
Its value is 3.6.

What about the “area under dose-response curve” value (CABOZANTINIB) of the same test system?
Its value is 3.5.

And the “area under dose-response curve” value (NILOTINIB)?
Its value is 3.93.

What about the “area under dose-response curve” value (BMN-673) of the same test system?
Its value is 2.62.

And the surviving fraction (IMATINIB [3]; 0.5 nM)?
The surviving fraction was 1.116 ± 0.0051.

And the surviving fraction (IMATINIB [3]; 1 nM)?
Its surviving fraction is 1.08 ± 0.071.

What about the surviving fraction (IMATINIB [3]; 5 nM) of the same test system?
Its surviving fraction is 1.04 ± 0.04.

And the surviving fraction (IMATINIB [3]; 10 nM)?
The surviving fraction was 1.1 ± 0.054.

What about the surviving fraction (IMATINIB [3]; 50 nM) of the same test system?
Its surviving fraction is 1.17 ± 0.11.

And the surviving fraction (IMATINIB [3]; 100 nM)?
The surviving fraction was 1.15 ± 0.043.

And the surviving fraction (IMATINIB [3]; 1000 nM)?
Its surviving fraction is 1.45 ± 0.69.

For HMLE3 BREAST, which “area under dose-response curve” value (IMATINIB [2]) is on record?
The value was 3.75.

What about the “area under dose-response curve” value (AFIMOXIFENE) of the same test system?
Its value is 3.71.

And the “area under dose-response curve” value (CABOZANTINIB)?
The value was 3.06.

And the “area under dose-response curve” value (NILOTINIB)?
Its value is 3.97.

What about the “area under dose-response curve” value (BMN-673) of the same test system?
The value was 2.43.

What about the surviving fraction (IMATINIB [3]; 0.5 nM) of the same test system?
The surviving fraction was 1.08 ± 0.038.

And the surviving fraction (IMATINIB [3]; 1 nM)?
Its surviving fraction is 1.14 ± 0.11.

And the surviving fraction (IMATINIB [3]; 5 nM)?
Its surviving fraction is 1.11 ± 0.08.

And the surviving fraction (IMATINIB [3]; 10 nM)?
Its surviving fraction is 1.21 ± 0.062.

What about the surviving fraction (IMATINIB [3]; 50 nM) of the same test system?
Its surviving fraction is 1.14 ± 0.047.

What about the surviving fraction (IMATINIB [3]; 100 nM) of the same test system?
Its surviving fraction is 1.23 ± 0.13.

And the surviving fraction (IMATINIB [3]; 500 nM)?
Its surviving fraction is 1.16 ± 0.054.

And the surviving fraction (IMATINIB [3]; 1000 nM)?
The surviving fraction was 1.01 ± 0.089.

Which results are given for HMT3552 BREAST?
area under dose-response curve [1]: 2.82; area under dose-response curve (IMATINIB [2]): 3.57; area under dose-response curve (AFIMOXIFENE): 3.53; area under dose-response curve (NILOTINIB): 3.47; area under dose-response curve (BMN-673): 2.34; surviving fraction (IMATINIB [3]; 0.5 nM): 1.01 ± 0.039; surviving fraction (IMATINIB [3]; 1 nM): 0.967 ± 0.041; surviving fraction (IMATINIB [3]; 5 nM): 1.04 ± 0.032; surviving fraction (IMATINIB [3]; 10 nM): 0.988 ± 0.057; surviving fraction (IMATINIB [3]; 50 nM): 1.15 ± 0.061; surviving fraction (IMATINIB [3]; 100 nM): 1.17 ± 0.062; surviving fraction (IMATINIB [3]; 500 nM): 1.18 ± 0.047; surviving fraction (IMATINIB [3]; 1000 nM): 1.16 ± 0.076

HS578T BREAST was tested. Which “area under dose-response curve” value [1] did it give?
Its value is 2.54.

And the “area under dose-response curve” value (IMATINIB [2])?
The value was 3.7.

And the “area under dose-response curve” value (AFIMOXIFENE)?
The value was 3.68.

And the “area under dose-response curve” value (CABOZANTINIB)?
Its value is 3.18.

And the “area under dose-response curve” value (NILOTINIB)?
The value was 2.81.

What about the “area under dose-response curve” value (BMN-673) of the same test system?
Its value is 2.94.

And the surviving fraction (IMATINIB [3]; 0.5 nM)?
The surviving fraction was 1.23 ± 0.27.

And the surviving fraction (IMATINIB [3]; 1 nM)?
The surviving fraction was 1.01 ± 0.11.

And the surviving fraction (IMATINIB [3]; 5 nM)?
The surviving fraction was 1.02 ± 0.12.

And the surviving fraction (IMATINIB [3]; 10 nM)?
The surviving fraction was 1.14 ± 0.27.

And the surviving fraction (IMATINIB [3]; 50 nM)?
Its surviving fraction is 1.21 ± 0.18.

And the surviving fraction (IMATINIB [3]; 100 nM)?
The surviving fraction was 1.07 ± 0.1.

And the surviving fraction (IMATINIB [3]; 500 nM)?
Its surviving fraction is 1.1 ± 0.16.

And the surviving fraction (IMATINIB [3]; 1000 nM)?
Its surviving fraction is 1.2 ± 0.17.
